Source: patent US8796470B2 (AbbVie Inc., priority 2010, dated 2014)

Target: T1, human Cav2.2 (Homo sapiens, UniProt Q00975)
T1 construct: IMR32 cells endogenously expressing human Cav2.2; endogenous in cells; host or cells: IMR32 cells (human neuroblastoma)
Test: Assessment of calcium channel activity using FLIPR (Ca2+ influx in IMR32 cells)
Assay type: cell-based
Conditions: IMR32 cells endogenously expressing human Cav2.2, Calcium 4 dye, 60 minute pre-incubation, 2 μM nifedipine, depolarized with 80 mM KCl, 5 mM CaCl2
Description: (i) In Vitro Methods—Assessment of Calcium Channel Activity Using FLIPR:
IMR32 cells endogenously expressing human Cav2.2 were assayed for Ca^2+ influx using a no-wash calcium indicator dye (Calcium 4 dye: Molecular Probes) and FLIPR technology (Lubin, M. L.; Reitz, T. L.; Todd, M. J.; Flores, C. M.; Qin, N.; Xin, H. Assay and Drug Development Technologies 2006, 4(6), 689-694.). The IMR32 cells were maintained in MEM media containing 10% (v/v) FBS, 1% (v/v) antibiotic/antimitotic, 1% (v/v) sodium pyruvate and 1% (v/v) MEM NEAA. Following dissociation in 0.05% (v/v) trypsin/EDTA, cells were seeded into black 1×96-well plates (Corning Cellbind) at a density of 1−1.2×10^5 cells/well and incubated in the maintenance media above for 48 hours at 37° C. Immediately prior to performing the assay the media was removed and cells were loaded for 1.5 hours with 1×Calcium 4 dye prepared in HBSS (137 mM NaCl, 5.4 mM KCl, 0.25 mM Na2HPO4, 0.44 mM KH2PO4, 1.3 mM CaCl2, 1 mM MgSO4, 4.2 mM NaHCO3) containing HEPES pH 7.4 at room temperature. After dye loading and a subsequent 60 minute pre-incubation with compounds (full log dilutions from 10 μM to 0.1 nM) in the presence of 1.3 mM CaCl2 and 2 μM nifedipine to block endogenous L-type channels, the external Ca^2+ concentration was increased to 5 mM CaCl2 and the cells concomitantly depolarized with 80 mM KCl to assay channel activity. To determine the IC50 values, the percent inhibition of the compound at each concentration was determined relative to the activity in the absence of inhibitor, and data was fitted using non-linear regression sigmoidal dose response curve analysis with GraphPad Prism®.

T1 sequence (Q00975 whole entry): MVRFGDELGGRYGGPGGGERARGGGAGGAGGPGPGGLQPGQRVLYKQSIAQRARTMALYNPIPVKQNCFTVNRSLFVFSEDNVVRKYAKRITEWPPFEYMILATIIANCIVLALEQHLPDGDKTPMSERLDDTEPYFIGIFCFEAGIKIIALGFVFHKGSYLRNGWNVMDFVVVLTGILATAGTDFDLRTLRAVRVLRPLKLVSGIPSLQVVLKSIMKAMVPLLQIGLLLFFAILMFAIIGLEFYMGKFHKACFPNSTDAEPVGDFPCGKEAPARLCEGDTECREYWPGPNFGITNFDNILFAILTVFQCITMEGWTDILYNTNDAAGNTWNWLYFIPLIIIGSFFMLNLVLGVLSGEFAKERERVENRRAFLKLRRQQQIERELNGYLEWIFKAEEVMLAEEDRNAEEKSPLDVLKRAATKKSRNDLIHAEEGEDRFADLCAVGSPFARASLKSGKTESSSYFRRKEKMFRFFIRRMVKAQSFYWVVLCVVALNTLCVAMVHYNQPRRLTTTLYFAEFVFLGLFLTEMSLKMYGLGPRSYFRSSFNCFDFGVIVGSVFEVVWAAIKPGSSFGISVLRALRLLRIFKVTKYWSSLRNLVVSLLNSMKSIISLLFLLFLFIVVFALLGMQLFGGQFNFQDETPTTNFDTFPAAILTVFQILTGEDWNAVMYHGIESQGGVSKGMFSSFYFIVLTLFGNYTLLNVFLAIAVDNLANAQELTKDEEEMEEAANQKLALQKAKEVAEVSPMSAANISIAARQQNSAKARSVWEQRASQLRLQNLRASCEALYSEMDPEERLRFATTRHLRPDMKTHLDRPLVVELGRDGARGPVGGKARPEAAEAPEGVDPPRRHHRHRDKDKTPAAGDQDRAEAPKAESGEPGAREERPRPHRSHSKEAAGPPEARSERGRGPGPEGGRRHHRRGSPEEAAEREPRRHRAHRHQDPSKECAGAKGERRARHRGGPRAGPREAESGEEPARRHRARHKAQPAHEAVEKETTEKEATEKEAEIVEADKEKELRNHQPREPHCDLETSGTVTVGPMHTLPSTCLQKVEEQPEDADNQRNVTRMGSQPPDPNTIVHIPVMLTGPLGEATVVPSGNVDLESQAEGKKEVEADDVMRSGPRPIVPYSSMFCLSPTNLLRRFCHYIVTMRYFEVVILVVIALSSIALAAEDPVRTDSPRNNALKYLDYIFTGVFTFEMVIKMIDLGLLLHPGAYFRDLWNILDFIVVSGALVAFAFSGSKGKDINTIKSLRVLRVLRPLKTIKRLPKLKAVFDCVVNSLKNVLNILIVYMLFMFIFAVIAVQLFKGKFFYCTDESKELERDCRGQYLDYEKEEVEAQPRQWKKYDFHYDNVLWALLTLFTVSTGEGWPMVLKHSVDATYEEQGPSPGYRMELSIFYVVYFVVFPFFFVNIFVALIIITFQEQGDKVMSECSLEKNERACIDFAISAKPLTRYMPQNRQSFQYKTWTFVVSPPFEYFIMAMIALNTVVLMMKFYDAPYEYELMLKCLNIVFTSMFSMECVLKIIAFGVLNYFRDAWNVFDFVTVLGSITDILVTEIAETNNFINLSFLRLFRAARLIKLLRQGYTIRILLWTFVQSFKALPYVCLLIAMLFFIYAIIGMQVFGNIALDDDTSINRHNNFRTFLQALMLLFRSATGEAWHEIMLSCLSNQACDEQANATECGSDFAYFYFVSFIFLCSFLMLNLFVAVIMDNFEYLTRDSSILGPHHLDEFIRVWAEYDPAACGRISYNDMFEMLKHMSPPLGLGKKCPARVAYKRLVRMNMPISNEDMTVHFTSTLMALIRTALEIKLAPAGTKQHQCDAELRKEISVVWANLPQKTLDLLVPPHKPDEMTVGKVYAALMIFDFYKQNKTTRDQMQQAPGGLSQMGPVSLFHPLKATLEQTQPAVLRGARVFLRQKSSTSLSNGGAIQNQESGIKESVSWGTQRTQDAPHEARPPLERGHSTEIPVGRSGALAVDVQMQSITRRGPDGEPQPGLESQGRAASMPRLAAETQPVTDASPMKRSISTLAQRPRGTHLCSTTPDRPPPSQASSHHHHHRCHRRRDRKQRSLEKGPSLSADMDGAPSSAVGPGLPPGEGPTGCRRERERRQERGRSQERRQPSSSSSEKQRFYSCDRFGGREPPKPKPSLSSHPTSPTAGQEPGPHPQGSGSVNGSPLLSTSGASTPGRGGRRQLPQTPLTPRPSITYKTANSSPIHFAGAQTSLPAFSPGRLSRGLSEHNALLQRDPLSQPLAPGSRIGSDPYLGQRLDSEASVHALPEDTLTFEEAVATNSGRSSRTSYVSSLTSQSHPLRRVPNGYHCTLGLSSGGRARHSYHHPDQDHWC
T1 sequence (P54289 25-956 partner limits assumed): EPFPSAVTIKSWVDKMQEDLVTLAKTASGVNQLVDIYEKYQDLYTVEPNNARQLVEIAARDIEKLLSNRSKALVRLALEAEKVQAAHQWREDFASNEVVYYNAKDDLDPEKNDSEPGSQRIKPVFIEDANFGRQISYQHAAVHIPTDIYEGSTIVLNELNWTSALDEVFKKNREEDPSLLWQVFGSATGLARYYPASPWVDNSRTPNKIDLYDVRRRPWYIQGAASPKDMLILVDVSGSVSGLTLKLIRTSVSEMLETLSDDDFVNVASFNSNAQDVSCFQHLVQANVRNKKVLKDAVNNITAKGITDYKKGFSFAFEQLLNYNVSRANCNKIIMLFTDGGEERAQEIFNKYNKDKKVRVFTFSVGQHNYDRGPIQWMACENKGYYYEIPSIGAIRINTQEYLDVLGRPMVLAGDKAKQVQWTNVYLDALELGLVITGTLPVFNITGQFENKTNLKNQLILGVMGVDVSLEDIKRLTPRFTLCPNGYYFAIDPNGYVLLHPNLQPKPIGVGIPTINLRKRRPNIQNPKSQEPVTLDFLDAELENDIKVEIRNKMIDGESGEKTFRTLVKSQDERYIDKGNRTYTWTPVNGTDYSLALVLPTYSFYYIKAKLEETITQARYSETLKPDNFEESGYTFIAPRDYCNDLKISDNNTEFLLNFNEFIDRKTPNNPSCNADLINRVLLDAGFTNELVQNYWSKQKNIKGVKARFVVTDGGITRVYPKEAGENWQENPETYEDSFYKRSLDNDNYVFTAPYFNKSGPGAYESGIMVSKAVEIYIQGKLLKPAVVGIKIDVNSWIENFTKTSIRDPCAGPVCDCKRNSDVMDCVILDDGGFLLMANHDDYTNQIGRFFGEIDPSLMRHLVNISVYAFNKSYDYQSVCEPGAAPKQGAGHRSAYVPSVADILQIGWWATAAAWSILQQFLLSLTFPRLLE
T1 sequence (P54289 957-1103 partner limits assumed): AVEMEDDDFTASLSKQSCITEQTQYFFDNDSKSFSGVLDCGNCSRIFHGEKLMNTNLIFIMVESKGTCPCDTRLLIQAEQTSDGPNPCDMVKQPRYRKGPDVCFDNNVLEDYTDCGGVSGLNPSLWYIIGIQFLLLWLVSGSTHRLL
T1 sequence (P54284 whole entry partner): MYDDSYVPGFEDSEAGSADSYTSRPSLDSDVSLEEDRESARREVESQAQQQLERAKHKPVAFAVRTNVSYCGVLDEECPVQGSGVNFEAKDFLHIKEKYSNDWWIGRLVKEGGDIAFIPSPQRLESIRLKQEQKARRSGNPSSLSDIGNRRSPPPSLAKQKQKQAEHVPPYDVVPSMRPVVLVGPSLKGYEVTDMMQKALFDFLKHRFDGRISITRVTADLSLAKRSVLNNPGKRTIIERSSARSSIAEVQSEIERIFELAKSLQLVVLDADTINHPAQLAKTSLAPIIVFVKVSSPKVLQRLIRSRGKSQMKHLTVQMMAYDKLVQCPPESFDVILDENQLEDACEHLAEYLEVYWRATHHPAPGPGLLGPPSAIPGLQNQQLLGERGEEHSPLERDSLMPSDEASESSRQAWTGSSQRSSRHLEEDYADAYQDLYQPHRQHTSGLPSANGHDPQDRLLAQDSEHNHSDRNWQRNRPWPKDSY

| IC50 [µM] | Compound |
| --- | --- |
| 3.6 | Fc1cccc2ncn([C@H]3CC[C@@H]4CN(c5cccc(C(F)(F)F)n5)C[C@@H]43)c12 [Example 64, 7-fluoro-1-{(3aR,4S,6aS)-2-[6-(trifluoromethyl)pyridin-2-yl]octahydrocyclopenta[c]pyrrol-4-yl}-1H-benzimidazole] |
| 8.34 | C[C@@]1(O)CC[C@@H]2CN(c3cccc(C(F)(F)F)n3)C[C@@H]21 [Example 33, (3aR,4R,6aS)-4-methyl-2-[6-(trifluoromethyl)pyridin-2-yl]octahydrocyclopenta[c]pyrrol-4-ol] |
| 1.15 | C[C@]1(NC(=O)CCC(F)(F)F)CC[C@@H]2CN(c3cccc(C(F)(F)F)n3)C[C@@H]21 [Example 72, 4,4,4-trifluoro-N-{(3aR,4S,6aS)-4-methyl-2-[6-(trifluoromethyl)pyridin-2-yl]octahydrocyclopenta[c]pyrrol-4-yl}butanamide] |
| 5.74 | Cc1ccn([C@H]2CC[C@@H]3CN(c4cccc(C(F)(F)F)n4)C[C@@H]32)n1 [Example 66, (3aR,4S,6aS)-4-(3-methyl-1H-pyrazol-1-yl)-2-[6-(trifluoromethyl)pyridin-2-yl]octahydrocyclopenta[c]pyrrole] |
| 1.82 | C[C@]1(NC(=O)c2cccc(F)c2)CC[C@@H]2CN(c3cccc(C(F)(F)F)n3)C[C@@H]21 [Example 19, 3-fluoro-N-{(3aR,4S,6aS)-4-methyl-2-[6-(trifluoromethyl)pyridin-2-yl]octahydrocyclopenta[c]pyrrol-4-yl}benzamide] |
| 21.4 | O=C1CC[C@@H]2CN(c3cccc(C(F)(F)F)n3)C[C@H]12 [Example 32, (3aR,6aS)-2-[6-(trifluoromethyl)pyridin-2-yl]hexahydrocyclopenta[c]pyrrol-4(1H)-one] |
| 6.01 | Fc1cccc(O[C@H]2CC[C@@H]3CN(c4cccc(C(F)(F)F)n4)C[C@@H]32)c1 [Example 44, (3aR,4S,6aS)-4-(3-fluorophenoxy)-2-[6-(trifluoromethyl)pyridin-2-yl]octahydrocyclopenta[c]pyrrole] |
| 1.39 | FC(F)(F)c1cccc(N2C[C@H]3CC[C@H](n4cccn4)[C@H]3C2)n1 [Example 51, (3aR,4S,6aS)-4-(1H-pyrazol-1-yl)-2-[6-(trifluoromethyl)pyridin-2-yl]octahydrocyclopenta[c]pyrrole] |
| 3.15 | FC(F)(F)c1cccc(N2C[C@H]3CC[C@H](n4cnc(-c5ccccc5)c4)[C@H]3C2)n1 [Example 58, (3aR,4S,6aS)-4-(4-phenyl-1H-imidazol-1-yl)-2-[6-(trifluoromethyl)pyridin-2-yl]octahydrocyclopenta[c]pyrrole] |
| 2.52 | C[C@]1(NC(=O)c2ccccc2)CC[C@@H]2CN(c3cccc(C(F)(F)F)n3)C[C@@H]21 [Example 15, N-{(3aR,4S,6aS)-4-methyl-2-[6-(trifluoromethyl)pyridin-2-yl]octahydrocyclopenta[c]pyrrol-4-yl}benzamide] |
| 10.8 | O[C@H]1[C@H]2CN(c3cccc(C(F)(F)F)n3)C[C@H]2C[C@H]1n1ccnc1 [Example 68, (3aR,4S,5R,6aS)-5-(1H-imidazol-1-yl)-2-[6-(trifluoromethyl)pyridin-2-yl]octahydrocyclopenta[c]pyrrol-4-ol] |
| 4.3 | FC(F)(F)c1cccc(N2C[C@H]3CC[C@H](n4ccnc4)[C@H]3C2)n1 [Example 50, (3aR,4S,6aS)-4-(1H-imidazol-1-yl)-2-[6-(trifluoromethyl)pyridin-2-yl]octahydrocyclopenta[c]pyrrole] |
| 6.13 | O[C@]1(c2cccc(F)c2)CC[C@@H]2CN(c3cccc(C(F)(F)F)n3)C[C@@H]21 [Example 36, (3aR,4R,6aS)-4-(3-fluorophenyl)-2-[6-(trifluoromethyl)pyridin-2-yl]octahydrocyclopenta[c]pyrrol-4-ol] |
| 2.95 | Fc1cccc(O[C@H]2CC[C@@H]3CN(Cc4ccccc4)C[C@@H]32)c1 [Example 48, (3aR,4S,6aS)-2-benzyl-4-(3-fluorophenoxy)octahydrocyclopenta[c]pyrrole] |
| 1.5 | C[C@@]1(NC(=O)c2cccc(F)c2)CC[C@@H]2CN(c3cccc(C(F)(F)F)n3)C[C@@H]21 [Example 18, 3-fluoro-N-{(3aR,4R,6aS)-4-methyl-2-[6-(trifluoromethyl)pyridin-2-yl]octahydrocyclopenta[c]pyrrol-4-yl}benzamide] |
| 2.14 | C[C@@]1(NC(=O)c2ccccc2)CC[C@@H]2CN(c3cccc(C(F)(F)F)n3)C[C@@H]21 [Example 14, N-{(3aR,4R,6aS)-4-methyl-2-[6-(trifluoromethyl)pyridin-2-yl]octahydrocyclopenta[c]pyrrol-4-yl}benzamide] |

Continued, compound first:

| Compound | IC50 [µM] |
| --- | --- |
| FC(F)(F)c1cccc(N2C[C@H]3CC[C@H](n4ccnc4-c4ccccc4)[C@H]3C2)n1 [Example 62, (3aR,4S,6aS)-4-(2-phenyl-1H-imidazol-1-yl)-2-[6-(trifluoromethyl)pyridin-2-yl]octahydrocyclopenta[c]pyrrole] | 1.03 |
| C[C@]1(NC(=O)c2cccc(F)c2)CC[C@@H]2CN(Cc3ccccc3)C[C@@H]21 [Example 7, N-[(3aR,4S,6aS)-2-benzyl-4-methyloctahydrocyclopenta[c]pyrrol-4-yl]-3-fluorobenzamide] | 5.16 |
| C=C1CC[C@@H]2CN(Cc3ccccc3)C[C@H]12 [Example 1, (3aS,6aS)-2-benzyl-4-methyleneoctahydrocyclopenta[c]pyrrole] | > 30 |
| CC(C)(C)O[C@H]1CC[C@@H]2CN(c3cccc(C(F)(F)F)n3)C[C@@H]21 [Example 43, (3aR,4S,6aS)-4-tert-butoxy-2-[6-(trifluoromethyl)pyridin-2-yl]octahydrocyclopenta[c]pyrrole] | 2.54 |
| C[C@]1(NC(=O)c2ccccc2)CC[C@@H]2CN(Cc3ccccc3)C[C@@H]21 [Example 3, N-[(3aR,4S,6aS)-2-benzyl-4-methyloctahydrocyclopenta[c]pyrrol-4-yl]benzamide] | 12 |
| CC(=O)N[C@]1(C)CC[C@@H]2CN(c3cccc(C(F)(F)F)n3)C[C@@H]21 [Example 16, N-{(3aR,4R,6aS)-4-methyl-2-[6-(trifluoromethyl)pyridin-2-yl]octahydrocyclopenta[c]pyrrol-4-yl}acetamide] | 6.44 |
| CC(c1cccc(F)c1)[C@@]1(O)CC[C@@H]2CN(c3cccc(C(F)(F)F)n3)C[C@@H]21 (stereo partly drawn) [Example 38, (3aR,4S,6aS)-4-[1-(3-fluorophenyl)ethyl]-2-[6-(trifluoromethyl)pyridin-2-yl]octahydrocyclopenta[c]pyrrol-4-ol] | 6.1 |
| FC(F)(F)c1cccc(N2C[C@H]3CC[C@H](n4cc(Cl)cn4)[C@H]3C2)n1 [Example 52, (3aR,4S,6aS)-4-(4-chloro-1H-pyrazol-1-yl)-2-[6-(trifluoromethyl)pyridin-2-yl]octahydrocyclopenta[c]pyrrole] | 7.39 |
| C[C@]1(NC(=O)[C@@H]2C[C@@H](F)CN2)CC[C@@H]2CN(c3cccc(C(F)(F)F)n3)C[C@@H]21 [Example 70, (4R)-4-fluoro-N-{(3aR,4S,6aS)-4-methyl-2-[6-(trifluoromethyl)pyridin-2-yl]octahydrocyclopenta[c]pyrrol-4-yl}-L-prolinamide] | 3.09 |
| CC(=O)N[C@]1(C)CC[C@@H]2CN(Cc3ccccc3)C[C@@H]21 [Example 4, N-[(3aR,4R,6aS)-2-benzyl-4-methyloctahydrocyclopenta[c]pyrrol-4-yl]acetamide] | > 30 |
| C[C@]1(N)CC[C@@H]2CN(c3cccc(C(F)(F)F)n3)C[C@@H]21 [Example 27, (3aR,4S,6aS)-4-methyl-2-[6-(trifluoromethyl)pyridin-2-yl]octahydrocyclopenta[c]pyrrol-4-amine] | 1.8 |
| Cc1cnn([C@H]2CC[C@@H]3CN(c4cccc(C(F)(F)F)n4)C[C@@H]32)c1 [Example 63, (3aR,4S,6aS)-4-(4-methyl-1H-pyrazol-1-yl)-2-[6-(trifluoromethyl)pyridin-2-yl]octahydrocyclopenta[c]pyrrole] | 2.78 |
| CC(=O)N[C@@]1(C)CC[C@@H]2CN(Cc3ccccc3)C[C@@H]21 [Example 5, N-[(3aR,4S,6aS)-2-benzyl-4-methyloctahydrocyclopenta[c]pyrrol-4-yl]acetamide] | > 30 |
| C[C@@]1(N)CC[C@@H]2CN(c3cccc(C(F)(F)F)n3)C[C@@H]21 [Example 26, (3aR,4R,6aS)-4-methyl-2-[6-(trifluoromethyl)pyridin-2-yl]octahydrocyclopenta[c]pyrrol-4-amine] | 3.64 |
| C[C@@]1(NC(=O)c2ccccc2)CC[C@@H]2CN(Cc3ccccc3)C[C@@H]21 [Example 2, N-[(3aR,4R,6aS)-2-benzyl-4-methyloctahydrocyclopenta[c]pyrrol-4-yl]benzamide] | 11.5 |
| C[C@]1(NCc2ccccc2)CC[C@@H]2CN(c3cccc(C(F)(F)F)n3)C[C@@H]21 [Example 20, (3aR,4S,6aS)—N-benzyl-4-methyl-2-[6-(trifluoromethyl)pyridin-2-yl]octahydrocyclopenta[c]pyrrol-4-amine] | 0.38 |
